Results on 25 molecules are retold here after patent publication US11236087B2, “Highly active pyrazolo-piperidine substituted indole-2-carboxamides active against the hepatitis B virus (HBV)” (AiCuris GmbH & Co. KG, priority 2017, dated 2022).

For series [1], the system named is HBV. As to the kind of experiment: Determination of HBV DNA from the supernatants of HepAD38 cells (anti-HBV activity). It counts as cell-based, hepatitis B virus. The settings on record: Hepatitis B virus, 144 h; HBV DNA in HepAD38 supernatant, day 6, qPCR; read-out: Cell Activity (EC50). An outline of the steps:
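HepAD38 cells, tetracycline withdrawn to induce HBV, treated with serial half-log compound dilutions; on day 6 HBV DNA purified from filtered supernatant and quantified by real-time PCR against HBV plasmid standards; EC50 from relative copy numbers by non-linear regression, three experiments in triplicate.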
For orientation: In qPCR the cycle at which signal appears reflects the starting amount.

The target of series [2] is T1, HBV core protein (UniProt P03146).
T1 construct: fused on or other part: BODIPY-FL maleimide label on the C-terminal Cys150
In words: Biochemical capsid assembly assay (fluorescence quenching). On the set-up: species or system hepatitis B virus. To be noted: read-out: Assembly Activity (IC50); BODIPY-FL labelled core protein, 300 μM NaCl, read 6 min after start. An outline of the steps: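 Purified E. coli-expressed HBV core protein (aa 1-149 plus Cys150), BODIPY-FL maleimide-labelled, at 1.0-2.0 μM in 50 mM HEPES pH 7.5 with 0.5% DMSO was used. Compounds were tested at 8 concentrations (0.5-log dilutions from 100, 31.6 or 10 μM). Assembly was started with NaCl ([…]), and fluorescence quenching was read after 6 min (ex 477/em 525 nm). EC50 was determined by non-linear regression.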

Series [3] is described as follows: Cell viability assay (AlamarBlue) in HepAD38 cells. The settings on record: human. Background: Alamar Blue is a resazurin reagent that responds to reducing activity.

pEC50, pIC50: −log10 of the molar value.

T1 sequence (P03146 whole entry, looked up, the tested form may be a part): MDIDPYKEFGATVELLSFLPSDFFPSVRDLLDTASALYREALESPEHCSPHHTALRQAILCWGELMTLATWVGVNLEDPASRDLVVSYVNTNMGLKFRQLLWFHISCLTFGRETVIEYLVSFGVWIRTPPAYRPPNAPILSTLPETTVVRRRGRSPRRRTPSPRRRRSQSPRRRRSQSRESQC

On to `O=C(c1cc2cccc(Cl)c2[nH]1)N1CCc2[nH]ncc2C1` [Example 120, 7-chloro-2-{1H,4H,5H,6H,7H-pyrazolo[4,3-c]pyridine-5-carbonyl}-1H-indole], for which, in series [1], the pEC50 (usually −log10 of the EC50, conventionally taken in molar units) is greater than 6.00. Besides, in series [2], the pIC50 (as a rule, the negative decadic logarithm of the IC50, by convention in mol/L) is 5.00 to 5.30. Also, the CC50 (as a rule, the concentration giving 50% cytotoxicity) at 6 days in series [3] was greater than 100 µM.
The like results for `O=C(c1cc2cc(Cl)ccc2[nH]1)N1CCc2[nH]ncc2C1` [Example 122, 5-chloro-2-{1H,4H,5H,6H,7H-pyrazolo[4,3-c]pyridine-5-carbonyl}-1H-indole] were, in that order, 4.60 to 6.00, greater than 4.00 and greater than 100 µM.
The like results for `O=C(c1cc2ccccc2[nH]1)N1CCc2[nH]nc(C(=O)N3CCCN3)c2C1` [Example 124, 2-[3-(pyrazolidine-1-carbonyl)-1H,4H,5H,6H,7H-pyrazolo[4,3-c]pyridine-5-carbonyl]-1H-indole] were, in that order, greater than 6.00, greater than 5.30 and greater than 32 µM.
In the case of `CON(C)C(=O)c1n[nH]c2c1CN(C(=O)c1cc3c(F)ccc(F)c3[nH]1)CC2` [Example 125, 5-(4,7-difluoro-1H-indole-2-carbonyl)-N-methoxy-N-methyl-1H,4H,5H,6H,7H-pyrazolo[4,3-c]pyridine-3-carboxamide], in series [1], the pEC50 is greater than 6.00. For the same molecule, the pIC50 in series [2] was greater than 5.30. This molecule showed a CC50 at 6 days in series [3] greater than 100 µM.
The like results for `CON(C)C(=O)c1n[nH]c2c1CN(C(=O)c1cc3c(Cl)cc(F)cc3[nH]1)CC2` [Example 126, 5-(4-chloro-6-fluoro-1H-indole-2-carbonyl)-N-methoxy-N-methyl-1H,4H,5H,6H,7H-pyrazolo[4,3-c]pyridine-3-carboxamide] were, in that order, greater than 6.00, greater than 5.30 and greater than 32 µM.
The like results for `CON(C)C(=O)c1n[nH]c2c1CN(C(=O)c1cc3c(F)cc(F)cc3[nH]1)CC2` [Example 127, 5-(4,6-difluoro-1H-indole-2-carbonyl)-N-methoxy-N-methyl-1H4H,5H,6H,7H-pyrazolo[4,3-c]pyridine-3-carboxamide] were, in that order, greater than 6.00, greater than 5.30 and greater than 100 µM.
For `CON(C)C(=O)c1n[nH]c2c1CN(C(=O)c1cc3c(C)cc(F)cc3[nH]1)CC2` [Example 128, 5-(6-fluoro-4-methyl-1H-indole-2-carbonyl)-N-methoxy-N-methyl-1H,4H,5H,6H,7H-pyrazolo[4,3-c]pyridine-3-carboxamide] the same measures were greater than 6.00, greater than 5.30 and 98 µM.
On to `CON(C)C(=O)c1n[nH]c2c1CN(C(=O)c1cc3c(C(F)(F)F)cccc3[nH]1)CC2` [Example 129, N-methoxy-N-methyl-5-[4-(trifluoromethyl)-1H-indole-2-carbonyl]-1H,4H,5H,6H,7H-pyrazolo[4,3-c]pyridine-3-carboxamide], for which the pEC50 in series [1] is greater than 6.00. In addition, the pIC50 in series [2] was greater than 5.30. In series [3], this molecule displayed a CC50 at 6 days greater than 32 µM.
The like results for `CON(C)C(=O)c1n[nH]c2c1CN(C(=O)c1cc3c(C)cccc3[nH]1)CC2` [Example 131, N-methoxy-N-methyl-5-(4-methyl-1H-indole-2-carbonyl)-1H,4H,5H,6H,7H-pyrazolo[4,3-c]pyridine-3-carboxamide] were, in that order, greater than 6.00, greater than 5.30 and greater than 100 µM.
On to `O=C(c1cc2ccccc2[nH]1)N1CCc2[nH]nc(C(=O)N3CCCO3)c2C1` [Example 133, 2-[3-(1,2-oxazolidine-2-carbonyl)-1H,4H,5H,6H,7H-pyrazolo[4,3-c]pyridine-5-carbonyl]-1H-indole], for which the pEC50 in series [1] was greater than 4.00. Besides, in series [2], the pIC50 was greater than 5.30. The molecule also showed a CC50 at 6 days in series [3] greater than 100 µM.
For `Cc1cc(F)cc2[nH]c(C(=O)N3CCc4[nH]ncc4C3)cc12` [Example 135, 6-fluoro-4-methyl-2-{1H,4H,5H,6H,7H-pyrazolo[4,3-c]pyridine-5-carbonyl}-1H-indole] the same measures were greater than 6.00, greater than 5.30 and greater than 100 µM.
For `Cc1cccc2[nH]c(C(=O)N3CCc4[nH]ncc4C3)cc12` [Example 136, 4-methyl-2-{1H,4H,5H,6H,7H-pyrazolo[4,3-c]pyridine-5-carbonyl}-1H-indole] the same measures were greater than 6.00, greater than 5.30 and greater than 100 µM.
For `CON(C)C(=O)c1n[nH]c2c1CN(C(=O)c1cc3ccccc3[nH]1)CC2` [Example 138, 5-(1H-indole-2-carbonyl)-N-methoxy-N-methyl-1H,4H,5H,6H,7H-pyrazolo[4,3-c]pyridine-3-carboxamide] the same measures were greater than 6.00, greater than 5.30 and greater than 100 µM.
On to `CCOC(=O)c1n[nH]c2c1CN(C(=O)c1cc3ccccc3[nH]1)CC2` [Example 140, ethyl 5-(1H-indole-2-carbonyl)-1H,4H,5H,6H,7H-pyrazolo[4,3-c]pyridine-3-carboxylate], for which, in series [1], the pEC50 was greater than 4.00. Also, in series [2], the negative logarithm of the IC50 (pIC50) was greater than 5.30. This molecule displayed a CC50 at 6 days in series [3] greater than 100 µM.
As to `O=C(c1cc2c(Cl)cc(F)cc2[nH]1)N1CCc2[nH]ncc2C1` [Example 142, 4-chloro-6-fluoro-2-{1H,4H,5H,6H,7H-pyrazolo[4,3-c]pyridine-5-carbonyl}-1H-indole], the pEC50 in series [1] was greater than 6.00. Besides, the pIC50 in series [2] was greater than 5.30. This molecule also had a CC50 at 6 days in series [3] greater than 100 µM.
Consider `C[C@H]1CCCCN1C(=O)c1n[nH]c2c1CN(C(=O)c1cc3ccccc3[nH]1)CC2` [Example 147, 2-{3-[(2S)-2-methylpiperidine-1-carbonyl]-1H,4H,5H,6H,7H-pyrazolo[4,3-c]pyridine-5-carbonyl}-1H-indole], for which, in series [1], the pEC50 is greater than 6.00. Also, in series [2], the pIC50 is 5.00 to 5.30. In series [3], this molecule gave a CC50 at 6 days greater than 10 µM.
Regarding `C[C@@H]1CCCCN1C(=O)c1n[nH]c2c1CN(C(=O)c1cc3ccccc3[nH]1)CC2` [Example 148, 2-{3-[(2R)-2-methylpiperidine-1-carbonyl]-1H,4H,5H,6H,7H-pyrazolo[4,3-c]pyridine-5-carbonyl}-1H-indole], the pEC50 in series [1] was 4.60 to 6.00. The pIC50 in series [2] was 5.00 to 5.30. In series [3], this molecule had a CC50 at 6 days greater than 10 µM.
With `CC(=O)NCCN(C)C(=O)c1n[nH]c2c1CN(C(=O)c1cc3ccccc3[nH]1)CC2` [Example 149, N-(2-{1-[5-(1H-indole-2-carbonyl)-1H,4H,5H,6H,7H-pyrazolo[4,3-c]pyridin-3-yl]-N-methylformamido}ethyl)acetamide], in series [1], the pEC50 was 4.60 to 6.00. Moreover, in series [2], the pIC50 was greater than 4.00. The molecule further gave a CC50 at 6 days in series [3] greater than 10 µM.
In the case of `CN(CCS(C)(=O)=O)C(=O)c1n[nH]c2c1CN(C(=O)c1cc3ccccc3[nH]1)CC2` [Example 150, 5-(1H-indole-2-carbonyl)-N-(2-methanesulfonylethyl)-N-methyl-1H,4H,5H,6H,7H-pyrazolo[4,3-c]pyridine-3-carboxamide], the pEC50 in series [1] is 4.60 to 6.00. Moreover, in series [2], the pIC50 was greater than 4.00. For the same molecule, the CC50 at 6 days in series [3] was greater than 10 µM.
Consider `O=C(c1cc2ccccc2[nH]1)N1CCc2[nH]nc(C(=O)N3C[C@H]4CCO[C@H]4C3)c2C1` [Example 152, 2-{3-[(3aR,6aR)-hexahydro-2H-furo[2,3-c]pyrrole-5-carbonyl]-1H,4H,5H,6H,7H-pyrazolo[4,3-c]pyridine-5-carbonyl}-1H-indole], for which, in series [1], the pEC50 was 4.60 to 6.00. In addition, the negative logarithm of the IC50 (pIC50) in series [2] is greater than 4.00. The molecule also registered a CC50 at 6 days in series [3] greater than 10 µM.
In the case of `O=C(c1cc2ccccc2[nH]1)N1CCc2[nH]nc(C(=O)N3CC4COCC4C3)c2C1` (stereo not drawn) [Example 153, 2-(3-{hexahydro-1H-furo[3,4-c]pyrrole-5-carbonyl}-1H,4H,5H,6H,7H-pyrazolo[4,3-c]pyridine-5-carbonyl)-1H-indole], in series [1], the pEC50 is 4.60 to 6.00. In addition, the negative logarithm of the IC50 (pIC50) in series [2] is greater than 4.00. The molecule also gave a CC50 at 6 days in series [3] greater than 10 µM.
In the case of `COCC1(N(C)C(=O)c2n[nH]c3c2CN(C(=O)c2cc4ccccc4[nH]2)CC3)CCC1` [Example 154, 5-(1H-indole-2-carbonyl)-N-[1-(methoxymethyl)cyclobutyl]-N-methyl-1H,4H,5H,6H,7H-pyrazolo[4,3-c]pyridine-3-carboxamide], in series [1], the pEC50 is greater than 6.00. The pIC50 in series [2] was 5.00 to 5.30. The molecule also came in with a CC50 at 6 days in series [3] greater than 10 µM.
The like results for `COCC1(N(C)C(=O)c2n[nH]c3c2CN(C(=O)c2cc4ccccc4[nH]2)CC3)CC1` [Example 155, 5-(1H-indole-2-carbonyl)-N-[1-(methoxymethyl)cyclopropyl]-N-methyl-1H,4H,5H,6H,7H-pyrazolo[4,3-c]pyridine-3-carboxamide] were, in that order, greater than 6.00, greater than 5.30 and greater than 10 µM.
For `O=C(c1cc2ccccc2[nH]1)N1CCc2[nH]nc(C(=O)N3CC[C@@H](O)C3)c2C1` [Example 156, (3R)-1-[5-(1H-indole-2-carbonyl)-1H,4H,5H,6H,7H-pyrazolo[4,3-c]pyridine-3-carbonyl]pyrrolidin-3-ol] the same measures were 4.60 to 6.00, greater than 4.00 and greater than 10 µM.
Take `O=C(c1cc2ccccc2[nH]1)N1CCc2[nH]nc(C(=O)N3CC[C@H](O)C3)c2C1` [Example 157, (3S)-1-[5-(1H-indole-2-carbonyl)-1H,4H,5H,6H,7H-pyrazolo[4,3-c]pyridine-3-carbonyl]pyrrolidin-3-ol]: the pEC50 in series [1] is 4.60 to 6.00. Besides, the pIC50 in series [2] was greater than 4.00. The molecule further yielded a CC50 at 6 days in series [3] greater than 10 µM.
